Results reported in ChEMBL document CHEMBL3112480, “γ-Alkylidene-γ-lactones and isobutylpyrrol-2(5H)-ones analogues to rubrolides as inhibitors of biofilm formation by gram-positive and gram-negative bacteria” (Bioorg Med Chem Lett, 2014).
Converted amounts (≈) assume the structure as drawn.

Tests used:
Pseudomonas aeruginosa [1] = test: Antibacterial activity against Pseudomonas aeruginosa ATCC 27853 assessed as effect on planktonic growth at 0.17 ug/ml after 20 hrs relative to control; assay type: functional
Pseudomonas aeruginosa [2] = test: Antibacterial activity against Pseudomonas aeruginosa ATCC 27853 assessed as inhibition of biofilm formation after 20 hrs by crystal-violet staining method; assay type: functional, organism-based
[3] = tested on: Staphylococcus epidermidis; test: Antibacterial activity against Staphylococcus epidermidis ATCC 35547 assessed as inhibition of biofilm formation after 20 hrs by crystal-violet staining method; assay type: functional, organism-based
[4] = tested on: Staphylococcus epidermidis; test: Antibacterial activity against Staphylococcus epidermidis ATCC 35547 assessed as effect on planktonic growth at 21.9 ug/ml after 20 hrs relative to control; assay type: functional
Staphylococcus aureus [5] = test: Antibacterial activity against Staphylococcus aureus ATCC 25923 assessed as effect on planktonic growth at 10.9 ug/ml after 20 hrs relative to control; assay type: functional
Streptococcus mutans [6] = test: Antibacterial activity against Streptococcus mutans ATCC 25175 assessed as effect on planktonic growth at 10.9 ug/ml after 20 hrs relative to control; assay type: functional
Pseudomonas aeruginosa [7] = test: Antibacterial activity against Pseudomonas aeruginosa ATCC 27853 assessed as effect on planktonic growth at 0.68 ug/ml after 20 hrs relative to control; assay type: functional
Staphylococcus aureus [8] = test: Antibacterial activity against Staphylococcus aureus ATCC 25923 assessed as effect on planktonic growth at 43.8 ug/ml after 20 hrs relative to control; assay type: functional
[9] = tested on: Staphylococcus epidermidis; test: Antibacterial activity against Staphylococcus epidermidis ATCC 35547 assessed as effect on planktonic growth at 0.68 ug/ml after 20 hrs relative to control; assay type: functional
Pseudomonas aeruginosa [10] = test: Antibacterial activity against Pseudomonas aeruginosa ATCC 27853 assessed as effect on planktonic growth at 21.9 ug/ml after 20 hrs relative to control; assay type: functional
Streptococcus mutans [11] = test: Antibacterial activity against Streptococcus mutans ATCC 25175 assessed as effect on planktonic growth at 87.5 ug/ml after 20 hrs relative to control; assay type: functional
Staphylococcus aureus [12] = test: Antibacterial activity against Staphylococcus aureus ATCC 25923 assessed as effect on planktonic growth at 21.9 ug/ml after 20 hrs relative to control; assay type: functional
[13] = tested on: Staphylococcus epidermidis; test: Antibacterial activity against Staphylococcus epidermidis ATCC 35547 assessed as effect on planktonic growth at 87.5 ug/ml after 20 hrs relative to control; assay type: functional
Staphylococcus aureus [14] = test: Antibacterial activity against Staphylococcus aureus ATCC 25923 assessed as effect on planktonic growth at 0.17 ug/ml after 20 hrs relative to control; assay type: functional
Staphylococcus aureus [15] = test: Antibacterial activity against Staphylococcus aureus ATCC 25923 assessed as effect on planktonic growth at 5.5 ug/ml after 20 hrs relative to control; assay type: functional
Pseudomonas aeruginosa [16] = test: Antibacterial activity against Pseudomonas aeruginosa ATCC 27853 assessed as effect on planktonic growth at 5.5 ug/ml after 20 hrs relative to control; assay type: functional
Pseudomonas aeruginosa [17] = test: Antibacterial activity against Pseudomonas aeruginosa ATCC 27853 assessed as effect on planktonic growth at 0.34 ug/ml after 20 hrs relative to control; assay type: functional
Staphylococcus aureus [18] = test: Antibacterial activity against Staphylococcus aureus ATCC 25923 assessed as effect on planktonic growth at 87.5 ug/ml after 20 hrs relative to control; assay type: functional
Staphylococcus aureus [19] = test: Antibacterial activity against Staphylococcus aureus ATCC 25923 assessed as effect on planktonic growth at 0.34 ug/ml after 20 hrs relative to control; assay type: functional
Streptococcus mutans [20] = test: Antibacterial activity against Streptococcus mutans ATCC 25175 assessed as effect on planktonic growth at 5.5 ug/ml after 20 hrs relative to control; assay type: functional
Streptococcus mutans [21] = test: Antibacterial activity against Streptococcus mutans ATCC 25175 assessed as effect on planktonic growth at 21.9 ug/ml after 20 hrs relative to control; assay type: functional
[22] = tested on: Staphylococcus epidermidis; test: Antibacterial activity against Staphylococcus epidermidis ATCC 35547 assessed as effect on planktonic growth at 5.5 ug/ml after 20 hrs relative to control; assay type: functional
Streptococcus mutans [23] = test: Antibacterial activity against Streptococcus mutans ATCC 25175 assessed as effect on planktonic growth at 0.17 ug/ml after 20 hrs relative to control; assay type: functional
Streptococcus mutans [24] = test: Antibacterial activity against Streptococcus mutans ATCC 25175 assessed as effect on planktonic growth at 0.34 ug/ml after 20 hrs relative to control; assay type: functional
Pseudomonas aeruginosa [25] = test: Antibacterial activity against Pseudomonas aeruginosa ATCC 27853 assessed as effect on planktonic growth at 87.5 ug/ml after 20 hrs relative to control; assay type: functional
[26] = tested on: Staphylococcus epidermidis; test: Antibacterial activity against Staphylococcus epidermidis ATCC 35547 assessed as effect on planktonic growth at 43.8 ug/ml after 20 hrs relative to control; assay type: functional
Pseudomonas aeruginosa [27] = test: Antibacterial activity against Pseudomonas aeruginosa ATCC 27853 assessed as effect on planktonic growth at 10.9 ug/ml after 20 hrs relative to control; assay type: functional
Streptococcus mutans [28] = test: Antibacterial activity against Streptococcus mutans ATCC 25175 assessed as effect on planktonic growth at 1.37 ug/ml after 20 hrs relative to control; assay type: functional
[29] = tested on: Staphylococcus epidermidis; test: Antibacterial activity against Staphylococcus epidermidis ATCC 35547 assessed as effect on planktonic growth at 2.73 ug/ml after 20 hrs relative to control; assay type: functional
Staphylococcus aureus [30] = test: Antibacterial activity against Staphylococcus aureus ATCC 25923 assessed as effect on planktonic growth at 2.73 ug/ml after 20 hrs relative to control; assay type: functional
Streptococcus mutans [31] = test: Antibacterial activity against Streptococcus mutans ATCC 25175 assessed as effect on planktonic growth at 43.8 ug/ml after 20 hrs relative to control; assay type: functional
Streptococcus mutans [32] = test: Antibacterial activity against Streptococcus mutans ATCC 25175 assessed as effect on planktonic growth at 2.73 ug/ml after 20 hrs relative to control; assay type: functional
[33] = tested on: Staphylococcus epidermidis; test: Antibacterial activity against Staphylococcus epidermidis ATCC 35547 assessed as effect on planktonic growth at 10.9 ug/ml after 20 hrs relative to control; assay type: functional
Staphylococcus aureus [34] = test: Antibacterial activity against Staphylococcus aureus ATCC 25923 assessed as effect on planktonic growth at 1.37 ug/ml after 20 hrs relative to control; assay type: functional
[35] = tested on: Staphylococcus epidermidis; test: Antibacterial activity against Staphylococcus epidermidis ATCC 35547 assessed as effect on planktonic growth at 0.34 ug/ml after 20 hrs relative to control; assay type: functional
Pseudomonas aeruginosa [36] = test: Antibacterial activity against Pseudomonas aeruginosa ATCC 27853 assessed as effect on planktonic growth at 1.37 ug/ml after 20 hrs relative to control; assay type: functional
Staphylococcus aureus [37] = test: Antibacterial activity against Staphylococcus aureus ATCC 25923 assessed as effect on planktonic growth at 0.68 ug/ml after 20 hrs relative to control; assay type: functional
Pseudomonas aeruginosa [38] = test: Antibacterial activity against Pseudomonas aeruginosa ATCC 27853 assessed as effect on planktonic growth at 43.8 ug/ml after 20 hrs relative to control; assay type: functional
[39] = tested on: Staphylococcus epidermidis; test: Antibacterial activity against Staphylococcus epidermidis ATCC 35547 assessed as effect on planktonic growth at 1.37 ug/ml after 20 hrs relative to control; assay type: functional
Pseudomonas aeruginosa [40] = test: Antibacterial activity against Pseudomonas aeruginosa ATCC 27853 assessed as effect on planktonic growth at 2.73 ug/ml after 20 hrs relative to control; assay type: functional
Staphylococcus aureus [41] = test: Induction of biofilm formation in Staphylococcus aureus ATCC 25923 at 44 ug/ml after 20 hrs by crystal-violet staining method relative to control; assay type: organism-based
Streptococcus mutans [42] = test: Antibacterial activity against Streptococcus mutans ATCC 25175 assessed as effect on planktonic growth at 0.68 ug/ml after 20 hrs relative to control; assay type: functional
[43] = tested on: Staphylococcus epidermidis; test: Antibacterial activity against Staphylococcus epidermidis ATCC 35547 assessed as effect on planktonic growth at 0.17 ug/ml after 20 hrs relative to control; assay type: functional

Q: How did the Activity (Pseudomonas aeruginosa [1]) turn out when `COc1ccc(C)cc1C1=C(Br)C(=O)N(CC(C)C)/C1=C\c1ccccc1Cl` was run?
A: -1.9%

Q: What about the inhibition (Pseudomonas aeruginosa [2]) of the same molecule?
A: Dose-dependent effect

Q: And the IC50 (Pseudomonas aeruginosa [2]; ATCC 27853, 20 h)?
A: 5.7 µg/mL (≈ 12.4 µM)

Q: And the inhibition [3]?
A: Dose-dependent effect

Q: And the IC50 ([3]; ATCC 35547, 20 h)?
A: > 87.5 µg/mL

Q: And the Activity [4]?
A: 31.7%

Q: What about the Activity (Staphylococcus aureus [5]) of the same molecule?
A: -13.4%

Q: And the Activity (Streptococcus mutans [6])?
A: 7.8%

Q: What about the Activity (Pseudomonas aeruginosa [7]) of the same molecule?
A: -7.7%

Q: What about the Activity (Staphylococcus aureus [8]) of the same molecule?
A: 8.9%

Q: What about the Activity [9] of the same molecule?
A: 3.4%

Q: And the Activity (Pseudomonas aeruginosa [10])?
A: -13.3%

Q: What about the Activity (Streptococcus mutans [11]) of the same molecule?
A: 49.5%

Q: And the Activity (Staphylococcus aureus [12])?
A: -6.3%

Q: And the Activity [13]?
A: 65.8%

Q: And the Activity (Staphylococcus aureus [14])?
A: -4.2%

Q: What about the Activity (Staphylococcus aureus [15]) of the same molecule?
A: -12%

Q: What about the Activity (Pseudomonas aeruginosa [16]) of the same molecule?
A: -13.8%

Q: What about the Activity (Pseudomonas aeruginosa [17]) of the same molecule?
A: -5.5%

Q: And the Activity (Staphylococcus aureus [18])?
A: 33.8%

Q: And the Activity (Staphylococcus aureus [19])?
A: -3.3%

Q: And the Activity (Streptococcus mutans [20])?
A: 8.9%

Q: And the Activity (Streptococcus mutans [21])?
A: 14.6%

Q: And the Activity [22]?
A: 3.3%

Q: And the Activity (Streptococcus mutans [23])?
A: -4.6%

Q: What about the Activity (Streptococcus mutans [24]) of the same molecule?
A: -1.4%

Q: And the Activity (Pseudomonas aeruginosa [25])?
A: 0.8%

Q: And the Activity [26]?
A: 46.4%

Q: What about the Activity (Pseudomonas aeruginosa [27]) of the same molecule?
A: -13.8%

Q: And the Activity (Streptococcus mutans [28])?
A: -0.4%

Q: What about the Activity [29] of the same molecule?
A: -5.5%

Q: What about the Activity (Staphylococcus aureus [30]) of the same molecule?
A: -6.6%

Q: What about the Activity (Streptococcus mutans [31]) of the same molecule?
A: 19.2%

Q: What about the Activity (Streptococcus mutans [32]) of the same molecule?
A: 3.9%

Q: What about the Activity [33] of the same molecule?
A: 13.1%

Q: And the Activity (Staphylococcus aureus [34])?
A: -13.4%

Q: What about the Activity [35] of the same molecule?
A: 17.8%

Q: And the Activity (Pseudomonas aeruginosa [36])?
A: -10.6%

Q: What about the Activity (Staphylococcus aureus [37]) of the same molecule?
A: -4.9%

Q: What about the Activity (Pseudomonas aeruginosa [38]) of the same molecule?
A: -11.1%

Q: What about the Activity [39] of the same molecule?
A: -4.4%

Q: And the Activity (Pseudomonas aeruginosa [40])?
A: -6%

Q: What about the Activity (Staphylococcus aureus [41]) of the same molecule?
A: 3.6%

Q: What about the Activity (Streptococcus mutans [42]) of the same molecule?
A: -2.1%

Q: What about the Activity [43] of the same molecule?
A: 4%
